Earlier results in patent publication US20250262160A1, “COMPOSITIONS FOR MODIFIED RELEASE OF ACTIVE INGREDIENTS” (PROLEVI BIO AB, priority 2022, published 2025).
Where two headings read alike, the source gives them in different places.

Tests used:
[1] = assumed parameter for IVIVC, as reported in literature

Half-life (T1/2) [1] | oral bioavailability (BA) [1] | Half-life (t½) after baseline (120 ng/dL) correction (estimated, parameter used for IVIVC) | elimination half-life (in adults) | biological half-life (in vivo) | estimated baseline corrected half-life (in vivo) | bioavailability (parameter used for IVIVC) | Tmax (thyroidectomized patients administered exogenous hormone) | T1/2 half-life (thyroidectomized patients administered exogenous hormone, after last LT3 dose withdrawal) | Structure (SMILES) | Volume of distribution (Vd) ([1]; body weight 75 Kg) | Volume of distribution (Vd) (body weight 75 kg euthyroid individual, parameter used for IVIVC)
0.75 h | 15% | – | – | – | – | – | – | – | COc1ccc2[nH]cc(CCNC(C)=O)c2c1 [melatonin] | 1602 L | –
– | – | 4 h | 23 to 25 h | 2.5 days | 4 h | 95% | 2.9 h | 3.62 h | N[C@@H](Cc1cc(I)c(Oc2ccc(O)c(I)c2)c(I)c1)C(=O)O [Formulation T3, triiodothyronine] | – | 0.2 L/kg
